{
  "source": "ChEMBL document CHEMBL1143555",
  "about": "“Development of low molecular weight HIV-1 protease dimerization inhibitors” (J Med Chem, 2005)",
  "data": [
    {"target": "Human immunodeficiency virus type 1 protease (Human immunodeficiency virus 1, UniProt Q72874)", "assay": "Inhibitory concentration against human immunodeficiency virus-1 protease; (competitive inhibitor)", "units": {"IC50": "µM"}, "values": [
      {"molecule": "CC(O)[C@H](NC(=O)CCCCCCCCCCCCCCC(=O)N[C@H](CC(=O)N[C@@H](Cc1ccccc1)C(=O)O)C(N)=O)C(=O)N[C@@H](Cc1ccccc1)C(N)=O", "note": "(stereo not given in full)", "IC50": 11}
    ]},
    {"target": "Human immunodeficiency virus type 1 protease (Human immunodeficiency virus 1) (UniProt Q72874)", "assay": "Percent inhibition of human immunodeficiency virus-1 protease after 1 uM treatment", "units": {"inhibition": "%"}, "values": [
      {"molecule": "CCC(C)[C@@H](NC(=O)[C@@H](NC(=O)CCCCCCCCCCCCCCC(=O)N[C@H](CC(=O)N[C@@H](Cc1ccccc1)C(=O)O)C(N)=O)C(C)O)C(=O)Nc1ccc(C(N)=O)cc1", "note": "(stereo not given in full)", "inhibition": 36},
      {"molecule": "CC[C@H](C)[C@@H](NC(=O)C(C)(C)NC(=O)CCCCCCCCCCCCCCC(=O)N[C@H](CC(=O)N[C@@H](Cc1ccccc1)C(=O)O)C(N)=O)C(=O)N[C@@H](Cc1ccccc1)C(N)=O", "inhibition": 7},
      {"molecule": "CCC(C)[C@H](NC(=O)CCCCCCCCCCCCCCC(=O)N[C@@H](CC(N)=O)C(=O)NC(Cc1ccc(O)cc1)C(=O)O)C(=O)N[C@H](Cc1ccccc1)C(N)=O", "note": "(stereo not given in full)", "inhibition": 15},
      {"molecule": "CCC(C)[C@@H](NC(=O)[C@@H](NC(=O)CCCCCCCCCCCCCCC(=O)N[C@H](CC(=O)N[C@@H](Cc1ccccc1)C(=O)O)C(N)=O)C(C)O)C(=O)NC(CC1CC1)C(N)=O", "note": "(stereo not given in full)", "inhibition": 21},
      {"molecule": "CCC(C)[C@@H](NC(=O)[C@@H](NC(=O)CCCCCCCCCCCCCCC(=O)N[C@H](CC(=O)N[C@@H](Cc1ccccc1)C(=O)O)C(N)=O)C(C)O)C(=O)NC(CO)C(N)=O", "note": "(stereo not given in full)", "inhibition": 8},
      {"molecule": "CC[C@H](C)[C@@H](NC(=O)c1cccc(CNC(=O)CCCCCCCCCCCCCCC(=O)N[C@H](CC(=O)N[C@@H](Cc2ccccc2)C(=O)O)C(N)=O)c1)C(=O)N[C@@H](Cc1ccccc1)C(N)=O", "inhibition": 10},
      {"molecule": "CCC(C)[C@@H](NC(=O)[C@@H](NC(=O)CCCCCCCCCCCCCCC(=O)N[C@H](CC(=O)N[C@@H](Cc1ccccc1)C(=O)O)C(N)=O)C(C)O)C(=O)NC(C(N)=O)c1ccccc1", "note": "(stereo not given in full)", "inhibition": 29},
      {"molecule": "CC(O)[C@H](NC(=O)CCCCCCCCCCCCCCC(=O)N[C@H](CC(=O)N[C@@H](Cc1ccccc1)C(=O)O)C(N)=O)C(=O)N[C@@H](C(=O)N[C@@H](Cc1ccccc1)C(N)=O)C1CCCCC1", "note": "(stereo not given in full)", "inhibition": 45},
      {"molecule": "CC[C@H](C)[C@@H](NC(=O)C(CC1CCCC1)NC(=O)CCCCCCCCCCCCCCC(=O)N[C@H](CC(=O)N[C@@H](Cc1ccccc1)C(=O)O)C(N)=O)C(=O)N[C@@H](Cc1ccccc1)C(N)=O", "note": "(stereo not given in full)", "inhibition": 13}
    ]}
  ]
}
